# Assay results taken from PubChem BioAssay AID330 (DTP/NCI, 2004).
# Several values for one entry are separate records, joined by “and”; a condition that tells them apart may be missing. Equal values may be shown once. Inconclusive results and toxic doses are left out.
# Tested on: P388 leukemia ip, CD2F1 mice, survival T/C
# Experiment: NCI In Vivo Anticancer Drug Screen. Data for tumor model P388 Leukemia (intraperitoneal) in CD2F1 (CDF1) mice
# Conditions: endpoint: median survival time, higher = longer survival
# Procedure, shortened: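 Mice carrying the transplanted tumor received test compound or vehicle. Survival was recorded in each group, and the value is the treated-group measurement divided by that of the vehicle-treated control group.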
# [1] = dose: 15.0 mg/kg/injection, schedule: Q01DX005 (ip), vehicle: Klucel (hydroxypropylcellulose) (HPC)
# [2] = dose: 30.0 mg/kg/injection, schedule: Q01DX005 (ip), vehicle: Klucel (hydroxypropylcellulose) (HPC)
# [3] = dose: 60.0 mg/kg/injection, schedule: Q01DX005 (ip), vehicle: Klucel (hydroxypropylcellulose) (HPC)
# [4] = dose: 120.0 mg/kg/injection, schedule: Q01DX005 (ip), vehicle: Klucel (hydroxypropylcellulose) (HPC)
# [5] = dose: 60.0 mg/kg/injection, schedule: Q01DX005 (ip), vehicle: saline with Tween-80
# [6] = dose: 120.0 mg/kg/injection, schedule: Q01DX005 (ip), vehicle: saline with Tween-80
# [7] = dose: 50.0 mg/kg/injection, schedule: Q01DX009 (ip), vehicle: Klucel (hydroxypropylcellulose) (HPC)
# [8] = dose: 100.0 mg/kg/injection, schedule: Q01DX009 (ip), vehicle: Klucel (hydroxypropylcellulose) (HPC)
# [9] = dose: 200.0 mg/kg/injection, schedule: Q01DX009 (ip), vehicle: Klucel (hydroxypropylcellulose) (HPC)
# [10] = dose: 15.0 mg/kg/injection, schedule: Q01DX005 (ip), vehicle: saline with Tween-80
# [11] = dose: 30.0 mg/kg/injection, schedule: Q01DX005 (ip), vehicle: saline with Tween-80
# [12] = dose: 240.0 mg/kg/injection, schedule: Q01DX005 (ip), vehicle: Klucel (hydroxypropylcellulose) (HPC)
# [13] = dose: 50.0 mg/kg/injection, schedule: Q01DX005 (ip), vehicle: saline with Tween-80
# [14] = dose: 100.0 mg/kg/injection, schedule: Q01DX005 (ip), vehicle: saline with Tween-80
# [15] = dose: 200.0 mg/kg/injection, schedule: Q01DX005 (ip), vehicle: saline with Tween-80
# [16] = dose: 100.0 mg/kg/injection, schedule: Q01DX009 (ip), vehicle: saline with Tween-80
# [17] = dose: 200.0 mg/kg/injection, schedule: Q01DX009 (ip), vehicle: saline with Tween-80
# [18] = dose: 100.0 mg/kg/injection, schedule: Q04DX002 (ip), vehicle: saline with Tween-80
# [19] = dose: 200.0 mg/kg/injection, schedule: Q04DX002 (ip), vehicle: saline with Tween-80
# [20] = dose: 400.0 mg/kg/injection, schedule: Q04DX002 (ip), vehicle: saline with Tween-80
smiles,measurement,setting,value
C=C1C2CCC3C(CCC4C5(C)CCCC43C3OCCN3C5)(C2)C1OC(C)=O (stereo not given),T/C,"dose: 12.0 mg/kg/injection, schedule: Q01DX009 (ip), vehicle: Klucel (hydroxypropylcellulose) (HPC)",100 % of control
same,T/C,"dose: 24.0 mg/kg/injection, schedule: Q01DX009 (ip), vehicle: Klucel (hydroxypropylcellulose) (HPC)",96 % of control
same,T/C,"dose: 48.0 mg/kg/injection, schedule: Q01DX009 (ip), vehicle: Klucel (hydroxypropylcellulose) (HPC)",91 % of control
c1ccc(-c2cc3nccnc3[nH]2)cc1,T/C,[1],100 % of control
same,T/C,[2],92 % of control
same,T/C,[3],87 % of control and 89 % of control
same,T/C,[4],97 % of control
CCOC(=O)Nc1nc2ccccc2n1CN1CCN(Cn2c(NC(=O)OCC)nc3ccccc32)CC1,T/C,"dose: 25.0 mg/kg/injection, schedule: Q01DX005 (ip), vehicle: saline",108 % of control
same,T/C,"dose: 50.0 mg/kg/injection, schedule: Q01DX005 (ip), vehicle: saline",111 % of control
same,T/C,"dose: 100.0 mg/kg/injection, schedule: Q01DX005 (ip), vehicle: saline",121 % of control
same,T/C,"dose: 200.0 mg/kg/injection, schedule: Q01DX005 (ip), vehicle: saline",122 % of control
COC1(OC)C=NNc2nccn21,T/C,[5],100 % of control
same,T/C,[6],96 % of control
same,T/C,"dose: 240.0 mg/kg/injection, schedule: Q01DX005 (ip), vehicle: saline with Tween-80",104 % of control
CC(C)c1cc(C2C(=O)c3ccccc3C2=O)cc(C(C)C)c1O,T/C,"dose: 100.0 mg/kg/injection, schedule: Q04DX002 (ip), vehicle: saline",106 % of control
same,T/C,"dose: 200.0 mg/kg/injection, schedule: Q04DX002 (ip), vehicle: saline",114 % of control
same,T/C,"dose: 400.0 mg/kg/injection, schedule: Q04DX002 (ip), vehicle: saline",108 % of control
CC(C)C[NH-].CC(C)C[NH-].O.O.[Cl][Pt+2][Cl],T/C,"dose: 11.0 mg/kg/injection, schedule: Q01DX009 (ip), vehicle: saline with Tween-80",167 % of control
same,T/C,"dose: 12.5 mg/kg/injection, schedule: Q01DX009 (ip), vehicle: other",181 % of control
same,T/C,"dose: 16.5 mg/kg/injection, schedule: Q01DX009 (ip), vehicle: saline with Tween-80",180 % of control
same,T/C,"dose: 25.0 mg/kg/injection, schedule: Q01DX009 (ip), vehicle: other",200 % of control
same,T/C,"dose: 25.0 mg/kg/injection, schedule: Q01DX009 (ip), vehicle: saline with Tween-80",218 % of control
CCC(=O)c1ccc(OS(=O)(=O)O)cc1,T/C,[7],96 % of control
same,T/C,[8],103 % of control
same,T/C,[9],99 % of control
Nc1nc(N)c2nc(CNc3ccc(Cl)c(Cl)c3)cnc2n1,T/C,[10],98 % of control
same,T/C,[11],89 % of control
CC1(C)OC(=O)N=C1c1ccc(F)cc1,T/C,[3],102 % of control
same,T/C,[4],107 % of control
same,T/C,[12],111 % of control
CCOC(=O)C1=C(C)NC(=O)NC1c1ccccc1 (stereo not given),T/C,[7],100 % of control
same,T/C,[8],107 % of control
same,T/C,[9],113 % of control
same,T/C,"dose: 400.0 mg/kg/injection, schedule: Q01DX009 (ip), vehicle: Klucel (hydroxypropylcellulose) (HPC)",109 % of control
O=C1c2ccccc2-c2cc(Br)c(N=Cc3c[nH]c4ccccc34)cc21,T/C,[13],105 % of control
same,T/C,[14],95 % of control
same,T/C,[15],89 % of control
Nc1ccccc1SC1CC(=O)N(c2ccc(Cl)cc2)C1=O (stereo not given),T/C,[16],105 % of control
same,T/C,[17],110 % of control
same,T/C,"dose: 400.0 mg/kg/injection, schedule: Q01DX009 (ip), vehicle: saline with Tween-80",100 % of control
COc1ccc2c(C)cc(N/N=C/c3ccccn3)nc2c1,T/C,"dose: 25.0 mg/kg/injection, schedule: Q01DX005 (ip), vehicle: Klucel (hydroxypropylcellulose) (HPC)",102 % of control and 112 % of control
same,T/C,"dose: 50.0 mg/kg/injection, schedule: Q01DX005 (ip), vehicle: Klucel (hydroxypropylcellulose) (HPC)",104 % of control and 118 % of control and 93 % of control
same,T/C,"dose: 100.0 mg/kg/injection, schedule: Q01DX005 (ip), vehicle: Klucel (hydroxypropylcellulose) (HPC)",104 % of control and 112 % of control
O=C1c2ccccc2-c2nc3ccccc3n21,T/C,"dose: 100.0 mg/kg/injection, schedule: Q01DX001 (ip), vehicle: saline",100 % of control
same,T/C,[18],100 % of control
same,T/C,"dose: 200.0 mg/kg/injection, schedule: Q01DX001 (ip), vehicle: saline",108 % of control
same,T/C,[19],106 % of control
same,T/C,"dose: 400.0 mg/kg/injection, schedule: Q01DX001 (ip), vehicle: saline",106 % of control
same,T/C,[20],100 % of control
NC(=O)c1c(-c2ccccc2)nc2sccn12,T/C,"dose: 100.0 mg/kg/injection, schedule: Q01DX001 (ip), vehicle: Klucel (hydroxypropylcellulose) (HPC)",98 % of control
same,T/C,"dose: 200.0 mg/kg/injection, schedule: Q01DX001 (ip), vehicle: Klucel (hydroxypropylcellulose) (HPC)",90 % of control
same,T/C,"dose: 400.0 mg/kg/injection, schedule: Q01DX001 (ip), vehicle: Klucel (hydroxypropylcellulose) (HPC)",92 % of control
COc1ccc2ccccc2c1CC(C)O (stereo not given),T/C,[13],101 % of control
same,T/C,[14],98 % of control
same,T/C,[15],102 % of control
CN(Cc1cnc2nc(N)nc(N)c2n1)c1ccc(C(=O)NC(CCC(=O)OCc2c(Cl)cccc2Cl)C(=O)OCc2c(Cl)cccc2Cl)cc1 (stereo not given),T/C,"dose: 3.75 mg/kg/injection, schedule: Q01DX005 (ip), vehicle: saline with Tween-80",168 % of control
same,T/C,"dose: 7.5 mg/kg/injection, schedule: Q01DX005 (ip), vehicle: saline with Tween-80",207 % of control and 237 % of control
same,T/C,[10],105 % of control and 92 % of control
same,T/C,[11],87 % of control
Cc1cc(C)c(OP(=S)(Oc2c(C)cc(C)cc2C)Oc2c(C)cc(C)cc2C)c(C)c1,T/C,"dose: 100.0 mg/kg/injection, schedule: Q04DX002 (ip), vehicle: Klucel (hydroxypropylcellulose) (HPC)",87 % of control
same,T/C,"dose: 200.0 mg/kg/injection, schedule: Q04DX002 (ip), vehicle: Klucel (hydroxypropylcellulose) (HPC)",86 % of control
O=C(Nc1cccc(C(=O)Nc2ccc(S(=O)(=O)O)c3cc(S(=O)(=O)O)cc(S(=O)(=O)O)c23)c1)Nc1cccc(C(=O)Nc2cccc3c(S(=O)(=O)O)c(S(=O)(=O)O)cc(S(=O)(=O)O)c23)c1,T/C,"dose: 60.0 mg/kg/injection, schedule: Q01DX005 (ip), vehicle: saline",88 % of control
same,T/C,"dose: 120.0 mg/kg/injection, schedule: Q01DX005 (ip), vehicle: saline",99 % of control
same,T/C,"dose: 240.0 mg/kg/injection, schedule: Q01DX005 (ip), vehicle: saline",93 % of control
O=C1c2cccc3cc([N+](=O)[O-])cc(c23)C(=O)N1CCN1CCN(CCN2C(=O)c3cccc4cc([N+](=O)[O-])cc(c34)C2=O)CC1,T/C,[18],95 % of control
same,T/C,[19],98 % of control
same,T/C,[20],90 % of control
O=C(CF)c1ccc(Cl)cc1,T/C,"dose: 50.0 mg/kg/injection, schedule: Q01DX009 (ip), vehicle: saline with Tween-80",99 % of control
same,T/C,[16],106 % of control
same,T/C,[17],111 % of control
Cc1ccc(S(=O)(=O)CN(CN2C(=O)CCC2=O)c2ccc(Cl)cc2)cc1,T/C,[1],101 % of control
same,T/C,[2],95 % of control
same,T/C,[3],91 % of control and 93 % of control
same,T/C,[12],90 % of control
CCCCC/C=C/C(=O)OC,T/C,[18],100 % of control
same,T/C,[19],100 % of control
same,T/C,[20],100 % of control
COC1=NCc2ccccc2C2(OC)C(C)(C)C12C#N (stereo not given),T/C,[13],96 % of control
same,T/C,[14],99 % of control
same,T/C,[15],101 % of control
O=C1c2sccc2C2C1N2C(=O)C(F)(F)F (stereo not given),T/C,[13],95 % of control
same,T/C,[14],98 % of control
same,T/C,[15],104 % of control
O=c1[nH]cc(Br)c2ccccc12,T/C,"dose: 25.0 mg/kg/injection, schedule: Q04DX002 (ip), vehicle: saline with Tween-80",92 % of control
same,T/C,"dose: 50.0 mg/kg/injection, schedule: Q04DX002 (ip), vehicle: saline with Tween-80",93 % of control
same,T/C,[18],96 % of control
CC(C)(C)C(=O)Oc1c2ccccc2cc2ccccc12,T/C,[11],88 % of control
same,T/C,[5],88 % of control and 89 % of control
same,T/C,[6],86 % of control
CCO/C(C)=C(\C#N)C(Cl)=Nc1ccc(OC)cc1,T/C,[18],108 % of control
same,T/C,[19],101 % of control
same,T/C,[20],100 % of control
Nc1[nH]c(=O)[nH]c(=O)c1S(=O)(=O)O,T/C,[7],95 % of control
same,T/C,[8],90 % of control
same,T/C,[9],95 % of control
